This is an account of results in publication PMC8119466, “A screen of FDA-approved drugs identifies inhibitors of protein tyrosine phosphatase 4A3 (PTP4A3 or PRL-3)” (Scientific Reports, 2021).

What all share (assay type): biochemical
Settings in all cases: FDA-approved drug screen; activity compared to DMSO

One assay concerns the target T1, recombinant PRL-1 (Homo sapiens, UniProt Q93096).
T1 construct: 6xHis (N, cleaved yes); made in house; host or cells: E. coli One Shot BL21 Star
T1 sequence (Q93096 1-173): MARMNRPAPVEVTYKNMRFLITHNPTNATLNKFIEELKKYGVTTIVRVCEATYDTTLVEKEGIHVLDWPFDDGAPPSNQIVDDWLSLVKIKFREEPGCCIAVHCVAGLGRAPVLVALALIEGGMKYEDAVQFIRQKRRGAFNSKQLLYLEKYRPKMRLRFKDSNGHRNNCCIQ
The assay can be described thus: In vitro phosphatase assay (DiFMUP hydrolysis), PRL-1. Further: test concentration or dose not given here.

A further assay has as its target T2, recombinant PRL-2 (Homo sapiens, UniProt Q12974).
T2 construct: 6xHis (N, cleaved yes); made in house; host or cells: E. coli One Shot BL21 Star
T2 sequence (Q12974 1-167): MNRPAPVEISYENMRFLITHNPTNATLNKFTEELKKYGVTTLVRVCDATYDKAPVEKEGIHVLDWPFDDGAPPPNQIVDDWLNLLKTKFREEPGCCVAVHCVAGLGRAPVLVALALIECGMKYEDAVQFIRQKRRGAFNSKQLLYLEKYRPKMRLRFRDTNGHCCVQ
The assay can be described thus: In vitro phosphatase assay (DiFMUP hydrolysis), PRL-2.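 Further: PRL-2 activity read as DiFMUP hydrolysis after 20 min at room temperature with drug, enzyme first pre-reduced at 4 °C for 20 min.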

A further assay concerns the target T3, recombinant PRL-3 (Homo sapiens, UniProt O75365).
T3 construct: 6xHis (N, cleaved yes); made in house; host or cells: E. coli One Shot BL21 Star
The assay can be described thus: In vitro phosphatase assay (DiFMUP hydrolysis), PRL-3. Further: test concentration or dose not given here.

Structures are written as SMILES. Counter-ions that a name gives are not always drawn.

T3 sequence (O75365 whole entry): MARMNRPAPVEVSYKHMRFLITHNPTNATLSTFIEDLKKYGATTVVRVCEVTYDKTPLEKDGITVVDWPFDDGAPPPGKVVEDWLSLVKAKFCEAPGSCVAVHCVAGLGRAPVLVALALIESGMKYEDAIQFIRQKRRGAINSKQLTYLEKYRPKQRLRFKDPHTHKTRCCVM

Turning to `C[C@]1(c2nc3c(C(N)=O)cccc3[nH]2)CCCN1` [Veliparib (ABT-888)], at recombinant PRL-1, the “% Phosphatase Activity (compared to DMSO) PRL-1” value worked out at 108%. Moreover, the “% Phosphatase Activity (compared to DMSO) PRL-2” value on recombinant PRL-2 was determined as 99%. The “% Phosphatase Activity (compared to DMSO) PRL-3” value on recombinant PRL-3 is 83%.
With `CCCS(=O)(=O)Nc1ccc(F)c(C(=O)c2c[nH]c3ncc(-c4ccc(Cl)cc4)cc23)c1F` [Vemurafenib (PLX4032, RG7204)], the “% Phosphatase Activity (compared to DMSO) PRL-1” value at recombinant PRL-1 is recorded as 89%. The “% Phosphatase Activity (compared to DMSO) PRL-2” value at recombinant PRL-2 came to 89%. Further, on recombinant PRL-3, the “% Phosphatase Activity (compared to DMSO) PRL-3” value is 80%.
Turning to `COc1ccc(C(CN(C)C)C2(O)CCCCC2)cc1` (stereo not drawn) [Venlafaxine], the “% Phosphatase Activity (compared to DMSO) PRL-1” value at recombinant PRL-1 amounted to 97%. For the same compound, the “% Phosphatase Activity (compared to DMSO) PRL-2” value on recombinant PRL-2 is on record as 100%. Further, the “% Phosphatase Activity (compared to DMSO) PRL-3” value on recombinant PRL-3 came to 84%.
In the same order, the values of `Nc1ncnc2c1ncn2[C@@H]1O[C@H](CO)[C@@H](O)[C@@H]1O` [Vidarabine] are 106%, 116% and 121%.
`COc1cccc(-c2ccc(NC(=O)C3=C(C(=O)O)CCC3)c(F)c2)c1` [Vidofludimus]: at recombinant PRL-1, the “% Phosphatase Activity (compared to DMSO) PRL-1” value is listed as 97%. For the same compound, at recombinant PRL-2, the “% Phosphatase Activity (compared to DMSO) PRL-2” value is listed as 72%. In addition, the “% Phosphatase Activity (compared to DMSO) PRL-3” value at recombinant PRL-3 amounted to 91%.
Take `N#C[C@@H]1CCCN1C(=O)CNC12CC3CC(CC(O)(C3)C1)C2` [Vildagliptin (LAF-237)]: the “% Phosphatase Activity (compared to DMSO) PRL-1” value at recombinant PRL-1 came out at 99%. Also, the “% Phosphatase Activity (compared to DMSO) PRL-2” value at recombinant PRL-2 is recorded as 136%. Besides, the “% Phosphatase Activity (compared to DMSO) PRL-3” value at recombinant PRL-3 is recorded as 94%.
With `CC[C@]1(O)C[C@@H]2CN(CCc3c([nH]c4ccccc34)[C@@](C(=O)OC)(c3cc4c(cc3OC)N(C)[C@H]3[C@@](O)(C(=O)OC)[C@H](OC(C)=O)[C@]5(CC)C=CCN6CC[C@]43[C@@H]65)C2)C1` [Vinblastine sulfate], the “% Phosphatase Activity (compared to DMSO) PRL-1” value at recombinant PRL-1 came to 92%. The “% Phosphatase Activity (compared to DMSO) PRL-2” value at recombinant PRL-2 was 95%. In addition, the “% Phosphatase Activity (compared to DMSO) PRL-3” value on recombinant PRL-3 is reported as 91%.
With `CC[C@]1(O)C[C@H]2CN(CCc3c([nH]c4ccccc34)[C@@](C(=O)OC)(c3cc4c(cc3OC)N(C=O)[C@H]3[C@@](O)(C(=O)OC)[C@H](OC(C)=O)[C@]5(CC)C=CCN6CC[C@]43[C@@H]65)C2)C1` [Vincristine], the “% Phosphatase Activity (compared to DMSO) PRL-1” value at recombinant PRL-1 was 85%. In addition, the “% Phosphatase Activity (compared to DMSO) PRL-2” value at recombinant PRL-2 worked out at 100%. For the same compound, on recombinant PRL-3, the “% Phosphatase Activity (compared to DMSO) PRL-3” value is reported as 61%.
On to `CCC1=C[C@@H]2CN(C1)Cc1c([nH]c3ccccc13)[C@@](C(=O)OC)(c1cc3c(cc1OC)N(C)[C@H]1[C@@](O)(C(=O)OC)[C@H](OC(C)=O)[C@]4(CC)C=CCN5CC[C@]31[C@@H]54)C2` [Vinorelbine Tartrate], for which the “% Phosphatase Activity (compared to DMSO) PRL-1” value at recombinant PRL-1 was 89%. For the same compound, the “% Phosphatase Activity (compared to DMSO) PRL-2” value at recombinant PRL-2 stood at 98%. Further, at recombinant PRL-3, the “% Phosphatase Activity (compared to DMSO) PRL-3” value is reported as 83%.
Take `CCOC(=O)C1=C[C@]2(CC)CCCN3CCc4c(n1c1ccccc41)[C@@H]32` [Vinpocetine]: the “% Phosphatase Activity (compared to DMSO) PRL-1” value at recombinant PRL-1 is reported as 95%. Further, at recombinant PRL-2, the “% Phosphatase Activity (compared to DMSO) PRL-2” value was determined as 114%. Further, the “% Phosphatase Activity (compared to DMSO) PRL-3” value on recombinant PRL-3 is 79%.
In the case of `CS(=O)(=O)c1ccc(C(=O)Nc2ccc(Cl)c(-c3ccccn3)c2)c(Cl)c1` [Vismodegib (GDC-0449)], the “% Phosphatase Activity (compared to DMSO) PRL-1” value on recombinant PRL-1 is recorded as 94%. At recombinant PRL-2, the “% Phosphatase Activity (compared to DMSO) PRL-2” value turned out to be 99%. Also, on recombinant PRL-3, the “% Phosphatase Activity (compared to DMSO) PRL-3” value is recorded as 79%.
`O=C1O[C@H]([C@@H](O)CO)C(O)=C1O` [Vitamin C]: the “% Phosphatase Activity (compared to DMSO) PRL-1” value on recombinant PRL-1 turned out to be 96%. In addition, the “% Phosphatase Activity (compared to DMSO) PRL-2” value on recombinant PRL-2 is listed as 105%. In addition, on recombinant PRL-3, the “% Phosphatase Activity (compared to DMSO) PRL-3” value came to 75%.
With `C=C1CC[C@H](O)C/C1=C/C=C1\CCC[C@]2(C)[C@@H]([C@H](C)/C=C/[C@H](C)C(C)C)CC[C@@H]12` [Vitamin D2], the “% Phosphatase Activity (compared to DMSO) PRL-1” value on recombinant PRL-1 is listed as 95%. The “% Phosphatase Activity (compared to DMSO) PRL-2” value on recombinant PRL-2 amounted to 99%. The “% Phosphatase Activity (compared to DMSO) PRL-3” value on recombinant PRL-3 stood at 84%.
Consider `C=C1CC[C@H](O)C/C1=C/C=C1\CCC[C@]2(C)[C@@H]([C@H](C)CCCC(C)C)CC[C@@H]12` [Vitamin D3], for which the “% Phosphatase Activity (compared to DMSO) PRL-1” value at recombinant PRL-1 was determined as 85%. For the same compound, the “% Phosphatase Activity (compared to DMSO) PRL-2” value at recombinant PRL-2 amounted to 95%. Besides, the “% Phosphatase Activity (compared to DMSO) PRL-3” value at recombinant PRL-3 is 63%.
For `OCC(CO)N[C@H]1C[C@](O)(CO)[C@@H](O)[C@H](O)[C@H]1O` [Voglibose], on recombinant PRL-1, the “% Phosphatase Activity (compared to DMSO) PRL-1” value was 98%. In addition, the “% Phosphatase Activity (compared to DMSO) PRL-2” value at recombinant PRL-2 is given as 104%. Besides, the “% Phosphatase Activity (compared to DMSO) PRL-3” value on recombinant PRL-3 worked out at 75%.
On to `CC[C@@H]1C(=O)N(C)c2cnc(Nc3ccc(C(=O)N[C@H]4CC[C@H](N5CCN(CC6CC6)CC5)CC4)cc3OC)nc2N1C(C)C` [Volasertib (BI 6727)], for which the “% Phosphatase Activity (compared to DMSO) PRL-1” value at recombinant PRL-1 worked out at 97%. The “% Phosphatase Activity (compared to DMSO) PRL-2” value at recombinant PRL-2 is 112%. Besides, on recombinant PRL-3, the “% Phosphatase Activity (compared to DMSO) PRL-3” value was 87%.
